Experimental data: paper doi:10.1101/2024.09.04.610228v1 (bioRxiv, 2024)
Peptide text beside a SMILES is read from it.

Tests used:
[1] = molecular target: FOXO4 FHD (Homo sapiens, UniProt P98177); assay: FPA competition assay; format: binding; details: FPA competition analysis
[2] = test system: A375 cells; assay: MTS cell viability assay, dividing vs cisplatin; format: cell-based, Human; details: dividing vs CDDP (4 µM)-induced senescent A375 cells
[3] = test system: FOXO4 foci in senescent A375 cells; assay: Immunofluorescence of FOXO4 foci in nuclei of senescent A375 cells; format: cell-based, Human; details: doxorubicin-induced senescent A375 cells; 30 μM CPP-CAND, 24 h; vs DMSO mock
[4] = test system: caspase 3/7; assay: Caspase 3/7 activity; format: cell-based, Human; details: senescent A375 cells; 20 μM, 24 h

FOXO4 FHD, sequence (P98177 95-195): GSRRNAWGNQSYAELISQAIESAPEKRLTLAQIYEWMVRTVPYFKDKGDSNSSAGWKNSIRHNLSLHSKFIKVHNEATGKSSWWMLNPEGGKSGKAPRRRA

In the case of `CC[C@H](C)[C@H](NC(=O)[C@H](C)NC(=O)[C@H](C)NC(=O)[C@@H]1CCCN1C(=O)[C@H](CO)NC(=O)[C@H](CC(C)C)NC(=O)[C@H](CCSC)NC(=O)[C@H](CC(C)C)NC(=O)[C@H](C)N)C(=O)N[C@@H](C)C(=O)N[C@@H](CCC(N)=O)C(=O)N[C@@H](Cc1c[nH]c2ccccc12)C(=O)N[C@@H](Cc1ccccc1)C(=O)N[C@H](C(=O)N[C@@H](C)C(=O)N[C@@H](C)C(=O)O)[C@@H](C)O` [CAND] (H-ALMLSPAAIAQWFTAA-OH; N-terminus and C-terminus assumed), the “Enhancement of inhibitory ability compared to p53 TAD PEP” value [1] is reported as “approximately three-fold”.

In the case of `CC[C@H](C)[C@H](NC(=O)[C@H](C)NC(=O)[C@H](C)NC(=O)[C@@H]1CCCN1C(=O)[C@H](CO)NC(=O)[C@H](CC(C)C)NC(=O)[C@H](CCSC)NC(=O)[C@H](CC(C)C)NC(=O)[C@H](C)NC(=O)[C@@H]1CCCN1C(=O)[C@@H]1CCCN1C(=O)[C@H](CCCNC(=N)N)NC(=O)[C@H](CCCNC(=N)N)NC(=O)[C@H](CCCNC(=N)N)NC(=O)[C@H](CCC(N)=O)NC(=O)[C@H](CCCNC(=N)N)NC(=O)[C@H](CCCNC(=N)N)NC(=O)[C@H](CCCCN)NC(=O)[C@H](CCCCN)NC(=O)[C@H](CCCNC(=N)N)NC(=O)CN)C(=O)N[C@@H](C)C(=O)N[C@@H](CCC(N)=O)C(=O)N[C@@H](Cc1c[nH]c2ccccc12)C(=O)N[C@@H](Cc1ccccc1)C(=O)N[C@H](C(=O)N[C@@H](C)C(=O)N[C@@H](C)C(=O)O)[C@@H](C)O` [CPP-CAND] (H-GRKKRRQRRRPPALMLSPAAIAQWFTAA-OH; N-terminus and C-terminus assumed), the “SI75 (selectivity index from IC75 values)” value [2] is reported as “approximately 2.4”, the “Reduction in number of FOXO4 foci in nuclei” value [3] is reported as “approximately 7.1 fold” and the “Caspase 3/7 activity (percentage of green fluorescent cells), senescent cells” value [4] is reported as 44%.
